Measurements from US5021439A, “Cerebral function ameliorating agents related to Tan-950 A” (priority 1988, dated 1991).
pIC50: −log10 of the molar value. Read-outs that look alike come from different tables or passages of the source.

Experiments:
[1] = test system: glutamate receptor (NMDA type, Quisqualate type and Kainate type); experiment: Affinity for the glutamate receptors of the brain, 3 sub-types taken together; format: binding, rat; conditions: summary of Table 5
Excerpt: (§1) The receptors of the exitatory amino acid (especially, glutamate) are classified into NMDA type, Quisqualate type and Kainate type. 3H-CPP [3-(2-carboxypiperazin-4-yl)propyl-1-[…]] as the ligand (a radio active substance which has high affinity for the receptor) for the NMDA-type-receptor, ^3 H-AMPA (DL-α-amino-3-hydroxy-5-methylisoxazole-4-propionic acid) as the ligand for the quisqualate-type-receptor, and ^3 H-kainic acid as the ligand for the kainate-type-receptor were used respectively. A sample of the crude synaptic membrane prepared from the forebrain of rat was washed 4 times by Tris hydrochloric acid buffer (pH 7.1) and kept in a freezing condition at -20° C. until its use.
(§2) Samples of the frozen crude synaptic membrane were melted and, after floating on 50 mM Tris hydrochloric acid buffer (pH 7.1), incubated for 30 minutes at 37° C. After the incubation, the synaptic membrane was centrifuged (48,000×g) and washed 3 times with 50 mM Tris hydrochloric acid buffer and used in the test.
(§3) In the binding assay of the NMDA-type-receptor, samples of the synaptic membrane were incubated in the presence or absence of a test compound together with 10 nM ^3 H-CPP in 50 mM Tris hydrochloric acid buffer (pH 7.1, 0° C.) for 15 minutes. The sediment (pellet) containing synapse membrane which was recovered by centrifugation of the incubation solution was rinsed with 50 mM Tris hydrochloric acid buffer (pH 7.1) and dissolved in 0.5 ml of Protosol® (made by New England Nuclear Inc.). In the binding assay of Quisqualate-type-receptor and Kainate-type-receptor, samples of the synapse was incubated in the presence or absence of a test compound in 5 nM ^3 H-AMPA (Quisqualate-type-receptor) or 2 nM ^3 H-Kainic acid (Kainate-type-receptor) together with 50 mM Tris hydrochloric acid buffer (pH 7.1, 0° C.) for 90 minutes. The solution was filtered with Whatman GF/B filter (Whatman®, made by Whatman Inc.) under reduced pressure and the filter was washed 3 times with 50 mM Tris hydrochloric acid buffer. The radioactivity on the filter was measured by a conventional method. The specific binding amount was determined by subtracting the non-specific binding from the total binding, taking the binding in the presence of an excessive non-radioactive L-sodium glutamate (1 mM) as the amount of the non-specfic binding, i.e., the binding to anything other than the receptor. The 50% inhibiting concentration (IC50) of the compound to be tested was determined as the concentration which inhibits 50% of the specific receptor binding of ^3 H-CPP, ^3 H-AMPA or ^3 H-kainic acid.

NMDA-type receptor = experiment: Binding assay of NMDA-type receptor (3H-CPP) on rat forebrain crude synaptic membrane; conditions: 10 nM 3H-CPP, pH 7.1, 0° C., 15 min; read-out: Affinity to NMDA-type receptor (3H-CPP), IC50
Excerpt: as §1, §2, §3

Solubility = format: physicochemical
Acute toxicity in mouse = conditions: in vivo, any administration routes (iv, ip, sc, po)
[2] = Conversion of each component of TAN-950 in aqueous solution (HPLC); format: physicochemical; conditions: 60° C.
Excerpt: The mixture of TAN-950A - E was applied to HPLC in order to isolate each component thereof and each component was isolated as approximately single peak compound.

[3] = target: Quisqualate-type receptor; experiment: Binding assay of Quisqualate-type receptor (3H-AMPA) on rat forebrain crude synaptic membrane
Excerpt: as §1, §2
as §3, with “receptor.” for “receptor. The 50% inhibiting concentration (IC50) of the compound to be tested was determined as the concentration which inhibits 50% of the specific receptor binding of ^3 H-CPP, ^3 H-AMPA or ^3 H-kainic acid.”

[4] = test system: neurons of rat hippocampus; experiment: Excitatory action on neurons of rat hippocampus in vitro (CA1 spike recording in slices); format: cell-based; conditions: rat hippocampal slices, CA1 pyramidal cell layer, Krebs-Ringer solution 33° C., read-out: Minimum effective concentration to induce firing of hippocampus nervous cell
Protocol: Male Wister rats (body weight: 300 -350 g) were used in the test. After cutting the head of rats, the brain was quickly taken out and […] thickness of the sliced samples of a hippocampus was prepared by a slice cutter. These samples were incubated in a nutrient solution (Krebs-Ringer solution, 33° C.) saturated with a mixed gas of 95% of oxygen gas and 5% of carbon dioxide gas for one or more hours. The test was carried out in the perfusion cisterna with perfusing at the flow speed of 1.5 ml/min. The action potential (spike) in CA1 pyramidal cell layer of the hippocampus was recorded extracellularlly by using a glass electrode filled with 2M NaCl solution. The test compounds were added to the perfusate and the change in number of the spikes with passage of time was counted by a pulse counter and recorded on the recorder. The Krebs-Ringer's solution contains 124 mM of NaCl, 5 mM of KCl, 1.24 mM of KH2 PO4, 1.3 mM of MgSO4, 2.4 mM of CaCL2, 26 mM of […] and 10 mM of glucose.

Kainate-type receptor = experiment: Binding assay of Kainate-type receptor (3H-kainic acid) on rat forebrain crude synaptic membrane
Excerpt: as §1, §2
as §3, with “receptor.” for “receptor. The 50% inhibiting concentration (IC50) of the compound to be tested was determined as the concentration which inhibits 50% of the specific receptor binding of ^3 H-CPP, ^3 H-AMPA or ^3 H-kainic acid.”

[5] = starting material heated in aqueous solution, 1 hour

## N[C@@H](Cc1c[nH]oc1=O)C(=O)O [Compound 1, TAN-950A]
[1]
  Affinity to the 3 sub-type receptors (in words): high affinities to the 3 sub-type receptors
NMDA-type receptor
  pIC50: 4.72
Solubility; acetone
  Solubility in acetone: Sparingly soluble
Solubility; chloroform
  Solubility in chloroform: Sparingly soluble
Solubility; dimethylsulfoxide
  Solubility in dimethylsulfoxide: Soluble
Solubility; ethyl acetate
  Solubility in ethyl acetate: Sparingly soluble
Solubility; methanol
  Solubility in methanol: Soluble
Solubility; water
  Solubility in water: Soluble
Acute toxicity in mouse
  LD50: > 4000 mg/kg
[2]; aqueous solution
  Conversion in aqueous solution (in words): converted mainly to TAN-950B and D, but slightly to TAN-950C and E
[2]; [5]
  TAN-950A in resulting substance, area percentage by HPLC: 63.8%
  TAN-950B in resulting substance, area percentage by HPLC: 13.0%
  TAN-950C in resulting substance, area percentage by HPLC: 5.7%
  TAN-950D in resulting substance, area percentage by HPLC: 12.1%
  TAN-950E in resulting substance, area percentage by HPLC: 3.1%
[3]; 5 nM 3H-AMPA, pH 7.1, 0° C., 90 min, read-out: Affinity to Quisqulate-type receptor (3H-AMPA), IC50
  pIC50: 6.55
[3]; summary of Table 5
  Affinity to the Quisqualate-type-receptor (in words): strong affinity
[4]; Rattus norvegicus, Neuron
  minimal effective concentration: ≥ 300 µM
[4]; listed as 1 (sodium salt)
  minimal effective concentration: 300 µM
Kainate-type receptor; 2 nM 3H-Kainic acid, pH 7.1, 0° C., 90 min
  Affinity to Kainate-type receptor (3H-KA), IC50: 3.6 µM
Kainate-type receptor; summary of Table 5
  Affinity to the Kainate-type-receptor (in words): strong affinity
